Holding throughout (settings): human, in vivo
Assay [1] concerns migraine symptoms.
In assay [2] the test system is symptoms of post-laminectomy syndrome.
For assay [3], the system named is migraine symptoms. This is another data set of the same source.

The record followed here is patent publication US20090214466A1 (priority 2006, published 2009).

As to etanercept [ENBREL® etanercept], the “frequency and severity of migraine symptoms” value in the assay on migraine symptoms [1] was “Reduction in the frequency and severity of migraine symptoms was reported”. Regarding infliximab [REMICADE® infliximab], the “symptoms of post-laminectomy syndrome” value in assay [2] is “reduced symptoms”. Regarding “botulinum toxin type A [BOTOX® botulinum toxin type A]”, the “frequency, severity, and duration of migraine symptoms” value in the assay with migraine symptoms [3] was “Reduction in the frequency, severity, and duration of migraine symptoms was reported”.
